Here are results for five compounds from patent publication US12617799B2, “Pyrazolopyrimidinone compounds” (Orphagen Pharmaceuticals, Inc., priority 2021, dated 2026).

By EC50 is commonly meant the concentration needed to bring the measured effect to its halfway point.

The target in test [1] is T1, human SF-1 (Homo sapiens, UniProt Q13285).
T1 construct: expressed in transfected cells; host or cells: CHO-K1 cells (Chinese hamster ovary), transient cotransfection with pG5luc
In words: SF-1 Luc assay (Gal4DBD-SF-1LBD luciferase reporter in transfected CHO-K1 cells). It is filed as cell-based. To be noted: CHO-K1 cells transfected with GAL4-SF-1 plasmid, 40 hours incubation; read-out: hSF-1-Luc: EC50. The text has this: BamHI and XbaI sites introduced by the primers […] (forward) and […] (reverse) were used for subcloning the amplicon into pFA-CMV.
Cells were routinely cultured by splitting them from 1:10 to 1:20. […] Four hours after transfection, cells were trypsinized and suspended to a concentration of 1.6×10^5 cells/ml in supplemented Ham's F-12 media.
Assays: The collected cells were resuspended in the culture medium and plated into a 384 well-white plate (Corning Life Sciences, Acton, MA) at 8,000 cells/50 μL/well.
Measurement of SF-1 Transcriptional Activity: SF-1 transcriptional activity was detected as the intracellular Luc activity using SteadyLite Plus HTS Reporter Gene Assay System. After the measurement of the cell viability, the culture media in the 384 well-plate were completely removed. Then, 30 μL of the Luc substrate solution was added into each well and incubated for 10 min at room temperature. After the incubation, luminescence of each well was measured by a microplate reader.
Calculation of the SF-1 Transcriptional Activity (% of Control): The % of control for the transcriptional activity was calculated according to the following equation: % of control=A/B×100 Equation • A: luminescence count in the test article-treated CHO cells transfected with GAL4-SF-1 plasmid • B: mean luminescence count in the vehicle-treated CHO cells transfected with GAL4-SF-1 plasmid
On the technique in general: In a reporter assay the amount or activity of a reporter protein is the signal.

Test [2] relates to rat Leydig tumor cell line R2C. The test is described as follows: R2C proliferation assay for SF-1 antagonists (EdU incorporation). It is filed as cell-based. To be noted: R2C, read-out: R2C: EC50. The protocol:
SF-1 regulates progenitor cell formation and survival in adult Leydig cells. Anti-proliferative effects of SF-1 antagonists using a SF-1+ rat Leydig tumor cell line, R2C, was investigated. Cell proliferation was measured by detecting DNA incorporation of EdU, a nucleoside analogue that can be fluorescently tagged after cell fixation.
Proliferation of the rat Leydig tumor cell line R2C (ATCC® CCL-97™) was assessed using 5-ethynyl-2′-deoxyuridine (EdU), a nucleoside analogue incorporated during DNA synthesis that can be fluorescently tagged after cell fixation. Cycloheximide, a protein synthesis inhibitor, was used as a positive control for the assay.
R2C cells are maintained according to a protocol provided by the American Type Culture Collection (ATCC). At the time of assay, R2C cells were diluted to 1.0 million cells/mL with culture medium (F12 medium supplemented with 2% FBS and 1% Penicillin-Streptomycin) and 50 uL of cell suspension seeded into each well of 384-well clear bottom plates. The assay plates were incubated in a humidified, 37° C., 6% CO2 atmosphere for 24 hours. Serially diluted SF-1 antagonists, cycloheximide or vehicle (DMSO) were then applied to the R2C cells and incubated in a humidified, 37° C., 6% CO2 atmosphere for two days. EdU (Invitrogen), at a final concentration of 5 μM, was added to the cells and incubated for an additional 16 hours, after which cells were fixed with 10% formalin.
Cells were then washed and permeabilized in 0.5% TritonX-100/PBS solution at RT for 1 hour. EdU incorporation was detected by labeling EdU with 6-FAM azide (Lumiprobe) using a copper (I)-catalyzed Click reaction between an azide and alkyne. The reaction mixture consists of 5 mM ascorbic acid, 1 mM CuSO4, 1 μM 6-FAM azide dissolved in PBS buffer. […] For data normalization, the average fluorescence of DMSO wells was defined as 100%, and average fluorescence of 10 μM cycloheximide wells was defined as 0%. Curve fitting and EC50 determination were performed using the variable slope sigmoidal dose-response analysis.
R2C cells were routinely cultured in R2C culture medium. To assay SF-1 antagonist inhibitory activity, R2C cells were resuspended in the R2C plating medium and plated into a 384 well-clear bottom black plate at 20,000 cells/50 μL/well. […] 10 μL EdU plating solution were then dispensed into each well of assay plate incubated at 37° C., 6% CO2 for two days.
R2C proliferation is measured by detecting the fluorescent labelled EdU. The R2C assay plates were fixed by dispense 60 μL of 10% formalin into each well, and the plates were incubated at room temperature for 1 hour on an orbital shaker. The plates were washed with 80 μL of PBS three times, and cells were permeabilized by treating with 100 μL of PBS-0.5% TritonX-100 at RT for 1 hour on an orbital shaker. The plates were washed with 80 μL of PBS three times, and after the last wash, 25 μL of PBS was dispensed into each well. 25 μL of 2× mounting mix solution was then added into each well of fixed cells, and the plates were incubated at RT for 30 min in the dark on an orbital shaker. The cells were washed with 80 μL of PBS, three times, and after the last wash, 25 μL of PBS was dispensed into each well. […] The cells were washed with 80 μL of PBS, three times, and after the last wash, 50 μL of PBS was dispensed into each well. Assay plates were sealed with aluminum foil, and fluorescence was measured using a Envision microplate reader.
The % of control for the proliferation activity was calculated according to the following equation: % of control=100×(A−C)/(B−C) Equation • A: fluorescence count in the test article-treated R2C cells • B: mean fluorescence count in the vehicle-treated R2C cells • C: mean fluorescence count in the 10 μM cycloheximide-treated R2C cells

T1 sequence (Q13285 198-461 limits assumed): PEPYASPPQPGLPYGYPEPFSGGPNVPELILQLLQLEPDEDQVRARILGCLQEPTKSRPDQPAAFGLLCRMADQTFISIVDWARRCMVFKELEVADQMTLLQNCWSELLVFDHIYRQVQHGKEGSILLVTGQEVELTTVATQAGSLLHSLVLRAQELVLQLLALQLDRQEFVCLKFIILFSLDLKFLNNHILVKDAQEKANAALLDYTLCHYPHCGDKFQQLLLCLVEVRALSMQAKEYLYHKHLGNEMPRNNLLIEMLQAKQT

As for `CCn1nc(Nc2ccc(C(F)(F)F)cc2)c2ncn(CC(=O)Nc3ccc(OC)c(F)c3)c(=O)c21` [Compound 77, 2-(1-ethyl-7-oxo-3-((4-(trifluoromethyl)phenyl)amino)-1,7-dihydro-6H-pyrazolo[4,3-d]pyrimidin-6-yl)-N-(3-fluoro-4-methoxyphenyl)acetamide], the EC50 in test [1] and in test [2] was under 200 nM throughout.
For the compound `CCn1nc(Nc2ccc(C(F)(F)F)cc2)c2ncn(CC(=O)N[C@H]3CC[C@H](OC(F)F)CC3)c(=O)c21` [Compound 80, N-((1r,4r)-4-(difluoromethoxy)cyclohexyl)-2-(1-ethyl-7-oxo-3-((4-(trifluoromethyl)phenyl)amino)-1,7-dihydro-6H-pyrazolo[4,3-d]pyrimidin-6-yl)acetamide], the EC50 in test [1] and in test [2] was under 200 nM throughout.
In the case of `CCn1nc(Nc2ccc(C(F)(F)F)cc2)c2ncn(CC(=O)N[C@H]3CC[C@H](OCC(C)(C)O)CC3)c(=O)c21` [Compound 84, 2-(1-ethyl-7-oxo-3-((4-(trifluoromethyl)phenyl)amino)-1,7-dihydro-6H-pyrazolo[4,3-d]pyrimidin-6-yl)-N-((1r,4r)-4-(2-hydroxy-2-methylpropoxy)cyclohexyl)acetamide], the EC50 in test [1] and in test [2] was under 200 nM in each case.
As for `CC(C)(O)CO[C@H]1CC[C@H](NC(=O)Cn2cnc3c(Nc4ccc(C(F)(F)F)cc4)nn(CC(F)(F)F)c3c2=O)CC1` [Compound 92, N-((1r,4r)-4-(2-hydroxy-2-methylpropoxy)cyclohexyl)-2-(7-oxo-1-(2,2,2-trifluoroethyl)-3-((4-(trifluoromethyl)phenyl)amino)-1,7-dihydro-6H-pyrazolo[4,3-d]pyrimidin-6-yl)acetamide], the EC50 in test [1] and in test [2] was 200 to 1000 nM each time.
Regarding `COc1ccc(NC(=O)Cn2cnc3c(Nc4ccc(C(F)(F)F)cc4)nn(C(C)C)c3c2=O)cc1F` [Compound 98, N-(3-fluoro-4-methoxyphenyl)-2-(1-isopropyl-7-oxo-3-((4-(trifluoromethyl)phenyl)amino)-1,7-dihydro-6H-pyrazolo[4,3-d]pyrimidin-6-yl)acetamide], the EC50 in test [1] fell in the range of 200 to 1000 nM; in test [2], 1000 to 10000 nM.
